# Measurements: ChEMBL document CHEMBL5338818, “Discovery of the First Potent, Selective, and In Vivo Efficacious Polo-like Kinase 4 Proteolysis Targeting Chimera Degrader for the Treatment of TRIM37-Amplified Breast Cancer” (J Med Chem, 2023)
# Active and inactive are the calls of the source. The rule behind the calls is not given here.
# Key:
# CYP3A4 = CYP3A4 (Homo sapiens, UniProt P08684); assay: Inhibition of CYP3A4 in human liver microsomes at 10 uM using ketoconazole as substrate preincubated for 10 mins followed by NADPH regenerating system addition and measured after 15 mins by LC-MS/MS analysis relative to control; format: ADME, Microsome; settings: time 25 min
# [1] = AUClast in ICR mouse at 2 mg/kg, iv measured upto 24 hrs by LC-M/MS analysis; format: ADME, organism-based; set-up: time < 24 hrs, dose 2 mg/kg, route iv; settings: in vivo
# [2] = Efflux ratio of apparent permeability across basolateral to apical side over apical to basolateral side in human Caco-2 cells; format: ADME, cell-based
# [3] = Toxicity in nu/nu mouse xenografted with human MCF7 cells assessed as effect on kidney at 20 mg/kg, ip administered once every other day for 21 days by HE staining based analysis; format: organism-based; settings: in vivo, 504 h, time 21 day
# [4] = Observed mean […] time infinity in ICR mouse at 2 mg/kg, iv measured upto 24 hrs by LC-M/MS analysis; format: ADME, organism-based; settings: in vivo
# [5] = biological target: Protein cereblon/Serine/threonine-protein kinase PLK4 (Homo sapiens, UniProt O00444+Q96SW2); assay: Protac activity at CRBN/PLK4 in human MCF7 cells at 1 uM by Western blot analysis; format: cell-based
# MCF7 = assay: Inhibition of human MCF7 cells migration at 0.1 to 1 uM by inverted microscopic analysis; format: functional, cell-based; settings: dose 0.1-1 µM, time 48.0 hrs, TDE = time-dependent effect
# CYP1A2 = biological target: T1, CYP1A2 (Homo sapiens, UniProt P05177); assay: Inhibition of CYP1A2 in human liver microsomes at 10 uM using alpha-Naphthoflavone as substrate preincubated for 10 mins followed by NADPH regenerating system addition and measured after 15 mins by LC-MS/MS analysis relative to control; format: ADME, Microsome; settings: time 25 min
# T1 sequence (P05177 whole entry): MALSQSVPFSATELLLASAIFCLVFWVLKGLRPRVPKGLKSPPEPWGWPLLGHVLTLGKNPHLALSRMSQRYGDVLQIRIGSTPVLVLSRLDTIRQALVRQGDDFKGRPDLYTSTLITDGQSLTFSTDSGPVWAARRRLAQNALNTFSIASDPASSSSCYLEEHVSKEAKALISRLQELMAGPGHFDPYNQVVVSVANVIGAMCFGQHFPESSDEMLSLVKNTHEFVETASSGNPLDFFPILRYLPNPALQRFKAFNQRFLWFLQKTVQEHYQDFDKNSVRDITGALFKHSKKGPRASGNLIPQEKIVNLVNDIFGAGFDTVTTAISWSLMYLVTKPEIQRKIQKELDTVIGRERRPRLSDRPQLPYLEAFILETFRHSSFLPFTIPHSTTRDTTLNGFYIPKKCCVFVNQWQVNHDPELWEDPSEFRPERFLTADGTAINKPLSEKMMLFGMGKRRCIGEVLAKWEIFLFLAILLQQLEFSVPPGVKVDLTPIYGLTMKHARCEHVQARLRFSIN
# [6] = Bioavailability in ICR mouse at […] measured upto 24 hrs by LC-M/MS analysis; format: ADME, organism-based; settings: in vivo
# [7] = Metabolic stability in rat liver microsomes assessed as compound remaining at 100 uM incubated for 60 mins in presence of NADPH by LC-MS/MS analysis; format: ADME, Microsome; settings: read-out: Stability
# [8] = Metabolic stability in rat liver microsomes assessed as half life at 100 uM incubated for 60 mins in presence of NADPH by LC-MS/MS analysis; format: ADME, Microsome
# [9] = Metabolic stability in mouse liver microsomes assessed as compound remaining at 100 uM incubated for 60 mins in presence of NADPH by LC-MS/MS analysis; format: ADME, Microsome; settings: read-out: Stability
# [10] = Observed AUC infinity in ICR mouse at 2 mg/kg, iv measured upto 24 hrs by LC-M/MS analysis; format: ADME, organism-based; set-up: time < 24 hrs, dose 2 mg/kg, route iv; settings: in vivo
# Chain of Protein cereblon/Serine/threonine-protein kinase PLK4 (O00444 whole entry, looked up): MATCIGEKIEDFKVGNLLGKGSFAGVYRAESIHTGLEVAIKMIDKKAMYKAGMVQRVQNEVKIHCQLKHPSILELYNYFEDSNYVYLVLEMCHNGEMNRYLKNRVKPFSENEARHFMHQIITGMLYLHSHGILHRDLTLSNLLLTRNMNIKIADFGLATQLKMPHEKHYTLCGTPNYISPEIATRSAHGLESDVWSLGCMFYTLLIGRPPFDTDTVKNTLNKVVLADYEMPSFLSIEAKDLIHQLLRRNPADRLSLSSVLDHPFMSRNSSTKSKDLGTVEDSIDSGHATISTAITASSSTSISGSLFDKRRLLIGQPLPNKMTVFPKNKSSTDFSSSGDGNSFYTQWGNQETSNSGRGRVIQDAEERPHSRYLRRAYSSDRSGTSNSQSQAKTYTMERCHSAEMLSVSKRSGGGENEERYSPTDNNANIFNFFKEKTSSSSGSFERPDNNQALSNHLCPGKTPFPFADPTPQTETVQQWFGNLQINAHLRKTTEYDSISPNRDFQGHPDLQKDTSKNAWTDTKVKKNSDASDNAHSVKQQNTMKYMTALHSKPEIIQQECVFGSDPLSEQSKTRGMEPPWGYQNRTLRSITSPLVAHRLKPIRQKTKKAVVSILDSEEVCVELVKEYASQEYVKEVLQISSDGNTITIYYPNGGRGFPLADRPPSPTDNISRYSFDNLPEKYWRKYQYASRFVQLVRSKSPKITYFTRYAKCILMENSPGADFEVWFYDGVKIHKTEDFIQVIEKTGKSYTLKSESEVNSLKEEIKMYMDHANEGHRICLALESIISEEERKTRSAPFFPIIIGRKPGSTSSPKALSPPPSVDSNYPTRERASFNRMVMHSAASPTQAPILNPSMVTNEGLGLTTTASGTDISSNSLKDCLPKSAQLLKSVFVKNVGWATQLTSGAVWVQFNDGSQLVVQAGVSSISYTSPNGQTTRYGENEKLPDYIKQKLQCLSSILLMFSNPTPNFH
# Chain of Protein cereblon/Serine/threonine-protein kinase PLK4 (Q96SW2 whole entry, looked up): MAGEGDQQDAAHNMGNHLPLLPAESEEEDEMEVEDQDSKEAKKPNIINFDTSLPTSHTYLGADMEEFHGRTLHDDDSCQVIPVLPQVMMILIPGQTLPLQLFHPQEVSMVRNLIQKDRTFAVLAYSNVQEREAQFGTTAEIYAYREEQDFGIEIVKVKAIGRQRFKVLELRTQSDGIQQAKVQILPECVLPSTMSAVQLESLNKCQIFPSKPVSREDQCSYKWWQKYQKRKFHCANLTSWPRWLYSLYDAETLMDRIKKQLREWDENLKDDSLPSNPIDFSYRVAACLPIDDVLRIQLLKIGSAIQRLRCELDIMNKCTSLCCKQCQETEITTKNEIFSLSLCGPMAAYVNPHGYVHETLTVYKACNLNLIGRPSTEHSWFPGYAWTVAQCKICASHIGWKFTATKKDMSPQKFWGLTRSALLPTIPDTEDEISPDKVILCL
# Chain of CYP3A4 (P08684 whole entry): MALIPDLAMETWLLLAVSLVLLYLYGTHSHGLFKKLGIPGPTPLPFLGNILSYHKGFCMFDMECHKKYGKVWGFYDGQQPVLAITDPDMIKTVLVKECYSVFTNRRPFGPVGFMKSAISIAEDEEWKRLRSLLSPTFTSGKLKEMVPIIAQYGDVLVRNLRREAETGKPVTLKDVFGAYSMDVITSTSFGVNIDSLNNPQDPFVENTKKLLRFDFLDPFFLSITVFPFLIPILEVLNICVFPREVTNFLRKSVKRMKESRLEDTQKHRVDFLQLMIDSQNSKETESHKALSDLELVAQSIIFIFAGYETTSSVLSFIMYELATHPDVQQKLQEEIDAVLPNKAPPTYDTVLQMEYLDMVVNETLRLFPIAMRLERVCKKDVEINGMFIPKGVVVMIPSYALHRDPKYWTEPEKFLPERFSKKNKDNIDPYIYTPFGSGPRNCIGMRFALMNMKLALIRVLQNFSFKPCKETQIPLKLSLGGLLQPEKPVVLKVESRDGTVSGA
smiles,measurement,setting,value
Cc1cc(Nc2nc(NCc3ccc(F)cc3F)nc3c2cnn3C2CCN(C(=O)C3CCN(c4ccc5c(c4)C(=O)N(C4CCC(=O)NC4=O)C5=O)CC3)CC2)n[nH]1 (stereo not drawn),"inhibition at 0.25 h, 10 µM",CYP3A4,20.4%
same,AUC(0-t) at 24 h,[1],941 ng·h/mL
same,efflux ratio,[2],2.02
same,Activity,[3],Non-Toxic
same,Time,[4],2.29 h
same,Activity,[5],Active
same,inhibition,MCF7,Tde
same,"inhibition at 0.25 h, 10 µM",CYP1A2,10.4%
same,bioavailability,[6],149%
same,"remaining at 1 h, 100 µM",[7],51.5%
same,half-life at 100 µM,[8],1.11 h
same,"remaining at 1 h, 100 µM",[9],56.4%
same,AUC(0-inf),[10],956 ng·h/mL
